This is an account of results in ChEMBL document CHEMBL1142825, “Synthesis and antiviral activity against Coxsackie virus B3 of some novel benzimidazole derivatives” (Bioorg Med Chem Lett, 2005).

Assay [1] deals with Vero. In words: Antiviral activity against Coxsackie virus B3 growth by 50% in Vero cells. Format: functional, cell-based, Chlorocebus sabaeus.
The subject of assay [2] is Vero. Nature of the assay: Selectivity index (TC50/IC50) against Coxsackie virus B3 in Vero cells. Format: functional, Chlorocebus sabaeus.
For assay [3], the system named is Vero. Nature of the assay: Cytotoxic concentration required to inhibit Vero cell growth by 50%. Format: functional, Chlorocebus sabaeus. Particulars: for CC50: Chlorocebus sabaeus, Vero, read-out: TC50 (the source's name); call rule not given here.
Assay [4] has as its system Vero. Nature of the assay: Antiviral activity against Coxsackie virus B3 growth by 50% in Vero cells:not active. Format: functional, cell-based, Chlorocebus sabaeus.
The mark [5] stands for this setting: Chlorocebus sabaeus, Vero, read-out: IC50.

Converted amounts (≈) assume the structure as drawn. “And” between values parts separate entries of the source, which are not always exact repeats. Equal entries are not always repeated.

Turning to `O=C(Nc1cccc(Br)c1)c1cccc2[nH]c(-c3ccncc3)nc12`, the IC50 in the assay with Vero [1] (setting [5]) worked out at 4.12 µg/mL (≈ 10.5 µM). The molecule also came in with an SI with Vero [2] of 2. The CC50 in the assay with Vero [3] is less than 8.24 µg/mL.

For `O=C(Nc1ccccc1F)c1cccc2[nH]c(-c3ccncc3)nc12`, the IC50 result in the assay on Vero [4] was “Not Active”. Moreover, the CC50 in the assay with Vero [3] amounted to 12.3 µg/mL (≈ 37 µM).

For `O=C(Nc1ccccc1)c1cccc2[nH]c(-c3cccnc3)nc12`, in the assay with Vero [1] (setting [5]), the IC50 was 1.17 µg/mL (≈ 3.72 µM). This molecule came in with an SI in the assay on Vero [2] of 9.17. Further, the CC50 in the assay on Vero [3] was 10.7 µg/mL (≈ 34.2 µM).

Turning to `O=C(Nc1ccccc1O)c1cccc2[nH]c(-c3ccncc3)nc12`, the IC50 in the assay on Vero [1] (setting [5]) was determined as 4.05 µg/mL (≈ 12.3 µM). This molecule also came in with an SI with Vero [2] of 4.56. In addition, the CC50 with Vero [3] is less than 18.5 µg/mL.

For the molecule `Cc1ccccc1NC(=O)c1cccc2[nH]c(-c3ccncc3)nc12`, the results for the IC50 in the assay with Vero [1] (setting [5]) and in the assay with Vero [1] (vero) were 2.42 µg/mL (≈ 7.37 µM) and 2.23 µg/mL (≈ 6.79 µM), respectively. Further, the SI in the assay with Vero [2] is 11.48 and 4.81. Besides, in the assay on Vero [3], the TC50 is <27.8 µg/mL and <10.74 µg/mL.

On to `O=C(Nc1cccc(O)c1)c1cccc2[nH]c(-c3ccncc3)nc12`, for which the IC50 result with Vero [4] is “Not Active”. In addition, the CC50 in the assay on Vero [3] is less than 5.9 µg/mL.

Turning to `NC(=O)c1cccc2[nH]c(-c3cccnc3)nc12`, in the assay with Vero [1] (setting [5]), the IC50 stood at 6.2 µg/mL (≈ 26 µM). In the assay on Vero [2], the SI is recorded as 2.98. Besides, the CC50 with Vero [3] is 18.5 µg/mL (≈ 77.6 µM).

Regarding `O=C(Nc1ccc([N+](=O)[O-])cc1)c1cccc2[nH]c(-c3ccncc3)nc12`, in the assay with Vero [1] (setting [5]), the IC50 is 18.5 µg/mL (≈ 51.5 µM). The SI in the assay with Vero [2] was found to be 2.99. Moreover, in the assay on Vero [3], the CC50 is less than 55.5 µg/mL.

In the case of `O=C(Nc1ccccc1)c1cccc2[nH]c(-c3ccccn3)nc12`, the IC50 in the assay with Vero [1] (setting [5]) worked out at 1.43 µg/mL (≈ 4.55 µM). Moreover, the SI in the assay on Vero [2] was determined as 38.8. For the same molecule, the CC50 in the assay with Vero [3] was determined as 55.6 µg/mL (≈ 177 µM).

In the case of `O=C(NCCO)c1cccc2[nH]c(-c3ccncc3)nc12`, in the assay with Vero [4], the IC50 result is on record as “Not Active”. The CC50 in the assay on Vero [3] amounted to 141 µg/mL (≈ 498 µM).

Turning to `O=C(Nc1ccccc1F)c1cccc2[nH]c(-c3cccnc3)nc12`, the IC50 with Vero [1] (setting [5]) came to 3.23 µg/mL (≈ 9.72 µM). This molecule yielded an SI in the assay on Vero [2] of 11.4. In addition, in the assay with Vero [3], the CC50 turned out to be 37 µg/mL (≈ 111 µM).

As for `O=C(NCCO)c1cccc2[nH]c(-c3cccnc3)nc12`, the IC50 with Vero [1] (setting [5]) was found to be 25.6 µg/mL (≈ 90.6 µM). For the same molecule, the SI in the assay with Vero [2] was determined as 7.51. In addition, the CC50 in the assay with Vero [3] was 192 µg/mL (≈ 682 µM).

On to `NC(=O)c1cccc2[nH]c(-c3ccccn3)nc12`, for which the IC50 with Vero [1] (setting [5]) was found to be 7.29 µg/mL (≈ 30.6 µM). The SI in the assay on Vero [2] worked out at 7.32. Besides, in the assay with Vero [3], the CC50 is 53.4 µg/mL (≈ 224 µM).

On to `O=C(Nc1ccc(Cl)cc1)c1cccc2[nH]c(-c3ccncc3)nc12`, for which the IC50 in the assay with Vero [1] (setting [5]) stood at 8.72 µg/mL (≈ 25 µM). The SI in the assay on Vero [2] came out at 2.35. Also, the CC50 with Vero [3] was less than 20.9 µg/mL.

For `O=C(Nc1ccccc1)c1cccc2[nH]c(-c3ccncc3)nc12`, the IC50 in the assay on Vero [1] (setting [5]) was determined as 3.85 µg/mL (≈ 12.2 µM). For the same molecule, in the assay on Vero [2], the SI is 4.06. Moreover, the CC50 in the assay with Vero [3] came out at 15.6 µg/mL (≈ 49.8 µM).

For the molecule `O=C(NCCO)c1cccc2[nH]c(-c3ccccn3)nc12`, in the assay with Vero [1] (setting [5]), the IC50 turned out to be 37 µg/mL (≈ 131 µM). This molecule also gave an SI with Vero [2] of 4.32. In the assay with Vero [3], the CC50 stood at 160 µg/mL (≈ 567 µM).

On to `O=C(Nc1ccccc1F)c1cccc2[nH]c(-c3ccccn3)nc12`, for which, in the assay on Vero [1] (setting [5]), the IC50 came to 0.54 µg/mL (≈ 1.62 µM). In addition, in the assay with Vero [2], the SI stood at 28.3. In addition, in the assay with Vero [3], the CC50 is 15.3 µg/mL (≈ 46.1 µM).

`NC(=O)c1ncn([C@@H]2O[C@H](CO)[C@@H](O)[C@H]2O)n1` [RIBAVIRIN]: the IC50 in the assay with Vero [1] (setting [5]) is 448 µg/mL (≈ 1830 µM). Further, in the assay with Vero [2], the SI is on record as more than 2.23. Besides, in the assay with Vero [3], the CC50 was more than 1000 µg/mL.

A word on the IC50: it is the point on the concentration scale where inhibition reaches its midpoint.
